We go through 26 compounds from ChEMBL document CHEMBL1129273, “Structural modifications of thalidomide produce analogs with enhanced tumor necrosis factor inhibitory activity” (J Med Chem, 1996).

A word on the IC50: it is the midpoint of a concentration-inhibition curve. The low end stands for inhibition by little substance, the high end for a need for much substance.

The first assay deals with T1, Tumor necrosis factor (Homo sapiens, UniProt P01375). The experiment in a line: Inhibitory activity of TNF-alpha was measured in the supernatant of human PBMCs stimulated with LPS. Type of assay: functional.
T1 sequence (P01375 whole entry): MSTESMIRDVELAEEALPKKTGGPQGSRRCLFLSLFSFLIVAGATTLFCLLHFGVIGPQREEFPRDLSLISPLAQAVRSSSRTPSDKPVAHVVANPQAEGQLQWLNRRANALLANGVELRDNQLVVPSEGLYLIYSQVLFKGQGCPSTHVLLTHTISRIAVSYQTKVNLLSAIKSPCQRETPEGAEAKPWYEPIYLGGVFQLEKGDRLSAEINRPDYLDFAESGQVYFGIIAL
On to `COC(=O)CC(c1ccc(OC)c(OC)c1)N1C(=O)c2cccc([N+](=O)[O-])c2C1=O` (stereo unspecified), for which the IC50 was 64 µM.
In the case of `COC(=O)CC(c1ccc(OC)c(OC)c1)N1C(=O)c2c(Cl)ccc(Cl)c2C1=O` (stereo unspecified), it took 7.9 µM to reach half-maximal inhibition (IC50).
`COC(=O)CC(c1ccc(OC)c(OC)c1)N1C(=O)c2cc(Cl)c(Cl)cc2C1=O` (stereo unspecified): the 50% inhibitory concentration (IC50) is 13 µM.
With `COC(=O)CC(c1ccc(OC)c(OC)c1)N1C(=O)c2ccc([N+](=O)[O-])cc2C1=O` (stereo unspecified), the IC50 was found to be 34 µM.

The target of another assay is T1, Tumor necrosis factor. The assay can be described thus: Inhibition of TNF-alpha production in LPS stimulated human PBMCs. It is filed as functional.
Turning to `COc1cccc(C(CC(N)=O)N2C(=O)c3ccccc3C2=O)c1` (stereo unspecified), it took 120 µM to reach half-maximal inhibition (IC50).
`N#Cc1cccc(C(CC(N)=O)N2C(=O)c3ccccc3C2=O)c1` (stereo unspecified) yielded a half-inhibitory concentration (IC50) of 89 µM.
Compound `CCNC(=O)CC(c1ccc(OC)c(OC)c1)N1C(=O)c2ccccc2C1=O` (stereo unspecified) displayed an IC50 of 53 µM. Against the preceding compound, the IC50 is about 1.7-fold lower.
The same measure, in the same setting: next, `COc1ccc(C(CC(=O)NCc2ccccc2)N2C(=O)c3ccccc3C2=O)cc1OC` (stereo unspecified): 84 µM.
In the case of `NC(=O)CC(c1ccccc1)N1C(=O)c2ccccc2C1=O` (stereo unspecified), the IC50 is 260 µM.
`N#Cc1ccc(C(CC(N)=O)N2C(=O)c3ccccc3C2=O)cc1` (stereo unspecified): inhibition was half-maximal at 150 µM (IC50).
On the same count and under the same terms, with `COc1ccc(C(CC(=O)O)N2C(=O)c3ccccc3C2=O)cc1OC` (stereo unspecified) the figure was 60 µM.
As to `CCCOc1ccc(C(CC(N)=O)N2C(=O)c3ccccc3C2=O)cc1OCCC` (stereo unspecified), half-maximal inhibition (IC50) was put at 55 µM.
As to `COC(=O)CC(c1ccc(OC)c(OC)c1)N1C(=O)c2cccc(O)c2C1=O` (stereo unspecified), the midpoint of inhibition, the IC50, lay at 15 µM.
Still for that read-out and setting: next, `COC(=O)CC(c1ccc(OC)c(OC)c1)N1C(=O)c2ccccc2C1=O` (stereo unspecified): 2.9 µM; `COC(=O)CC(c1ccc(OC)c(OC)c1)N1C(=O)c2cccc(N)c2C1=O` (stereo unspecified): 0.45 µM.
Compound `CCOc1ccc(C(CC(N)=O)N2C(=O)c3ccccc3C2=O)cc1OCC` (stereo unspecified) registered a concentration for half-maximal inhibition (IC50) of 5.6 µM.
The compound `COc1ccc(C(CCO)N2C(=O)c3ccccc3C2=O)cc1OC` (stereo unspecified) showed an IC50 of 7.5 µM.
Compound `COC(=O)CC(c1ccc(OC)c(OC)c1)N1C(=O)c2ccc(C(C)(C)C)cc2C1=O` (stereo unspecified) gave an IC50 of 4.2 µM.
Compound `NC(=O)CC(c1ccc(Cl)c(Cl)c1)N1C(=O)c2ccccc2C1=O` (stereo unspecified) showed an IC50 of 70 µM.
Compound `CNC(=O)CC(c1ccc(OC)c(OC)c1)N1C(=O)c2ccccc2C1=O` (stereo unspecified) displayed an IC50 of 12 µM.
The same measure, in the same setting: with `NC(=O)CC(c1ccc2ccccc2c1)N1C(=O)c2ccccc2C1=O` (stereo unspecified) the figure was 51 µM; with `COc1ccc(C(CC(N)=O)N2C(=O)c3ccccc3C2=O)cc1` (stereo unspecified), 62 µM.
Same read-out and setting: with `COC(=O)CC(c1ccc(OC)c(OC)c1)N1C(=O)c2ccc(N)cc2C1=O` (stereo unspecified) the figure was 0.38 µM; with `COc1cc(OC)cc(C(CC(N)=O)N2C(=O)c3ccccc3C2=O)c1` (stereo unspecified), 39 µM.
On the same count and under the same terms, next, `COc1ccc(C(CC(N)=O)N2C(=O)c3ccccc3C2=O)cc1OC` (stereo unspecified): 12 µM; `COC(=O)CC(c1ccc(OC)c(OC)c1)N1C(=O)c2cc3ccccc3cc2C1=O` (stereo unspecified): 4.7 µM.
